Literature values, collected in publication PMC8619046, “ABCB1 and ABCG2 Control Brain Accumulation and Intestinal Disposition of the Novel ROS1/TRK/ALK Inhibitor Repotrectinib, While OATP1A/1B, ABCG2, and CYP3A Limit Its Oral Availability” (Pharmaceutics, 2021).

Details: cited from earlier work; for brain-to-plasma ratio: wild-type mice; for fold increase of brain-to-plasma ratio: combined genetic knockout of Abcb1 and Abcg2, mice

SMILES | fold enhancement of brain-to-plasma ratio (mouse, in vivo) | brain-to-plasma ratio | fold increase of brain-to-plasma ratio [fold]
C[C@@H](Oc1cc(-c2cnn(C3CCNCC3)c2)cnc1N)c1c(Cl)ccc(F)c1Cl [crizotinib] | ~ 15 fold | about 0.2 | –
C[C@H]1Oc2cc(cnc2N)-c2c(nn(C)c2C#N)CN(C)C(=O)c2ccc(F)cc21 [lorlatinib] | – | 0.4 | 4
C[C@@H]1CCc2ncc(F)cc2[C@H]2CCCN2c2ccn3ncc(c3n2)C(=O)N1 [selitrectinib] | – | 0.03 | 6
